Converted amounts (≈) assume the structure as drawn. Where two headings read alike, the source gives them in different places.
Experiments:
B. cepacia = assay: Levofloxacin MIC against B. cepacia; assay type: cell-based; details: Burkholderia cepacia
S. aureus = assay: Phase 2 study: presumptive S. aureus density in sputum; assay type: in vivo, human
Description: The following dosage regimens (as nebulizer loaded doses) were evaluated: 120 mg QD (daily); 240 mg QD (daily); and 240 mg BID (twice daily).
Patients were assessed on Day 1, 7, 14, and 28, and then up to 28 days after completion of study drug, namely, Days 42 and 56. The end of the study was defined as the last visit of the last patient.

[1] = EE population, Combined 240 mg QD and BID
[2] = EE population, Combined Levofloxacin
[3] = Table 21 (EE population), 120 mg QD
[4] = Table 21 (EE population), 240 mg BID
[5] = Table 21 (EE population), 240 mg QD
[6] = Table 21 (EE population), Combined 240 mg QD and BID
[7] = Table 21 (EE population), Combined Levofloxacin

C[C@H]1COc2c(N3CCN(C)CC3)c(F)cc3c(=O)c(C(=O)O)cn1c23 [Levofloxacin, levofloxacin]
MIC (B. cepacia): > 128 µg/mL
MIC (B. cepacia; five strains tested in mouse model, read-out: MICs of five B. cepacia strains): 0.25 to 8 µg/mL (≈ 0.692 to 22.1 µM)
MIC (B. cepacia; strain BC1012, read-out: MIC): 4 µg/mL (≈ 11.1 µM)
MIC (B. cepacia; strain BC1013, read-out: MIC): 0.25 µg/mL (≈ 0.692 µM)
MIC (B. cepacia; strain BC1014, read-out: MIC): 1 µg/mL (≈ 2.77 µM)
MIC (B. cepacia; strain BC1020, read-out: MIC): 8 µg/mL (≈ 22.1 µM)
MIC (B. cepacia; strain BC1021, read-out: MIC): 8 µg/mL (≈ 22.1 µM)
presumptive S. aureus density, Change from Baseline to Day 7, Mean (S. aureus; EE population, 120 mg QD): −1.19 log10 CFU/g sputum
presumptive S. aureus density, Day 1, Mean (S. aureus; EE population, 120 mg QD): 5.72 log10 CFU/g sputum
presumptive S. aureus density, Day 7, Mean (S. aureus; EE population, 120 mg QD): 4.53 log10 CFU/g sputum
presumptive S. aureus density, Day 14, Mean (S. aureus; EE population, 120 mg QD): 5.30 log10 CFU/g sputum
presumptive S. aureus density, Day 28, Mean (S. aureus; EE population, 120 mg QD): 5.31 log10 CFU/g sputum
presumptive S. aureus density, Change from Baseline to Day 28, Mean (S. aureus; EE population, 120 mg QD, Day 14): −0.42 log10 CFU/g sputum
presumptive S. aureus density, Change from Baseline to Day 28, Mean (S. aureus; EE population, 120 mg QD, Day 28): −0.41 log10 CFU/g sputum
presumptive S. aureus density, Change from Baseline to Day 7, Mean (S. aureus; EE population, 240 mg BID): −0.72 log10 CFU/g sputum
presumptive S. aureus density, Day 1, Mean (S. aureus; EE population, 240 mg BID): 5.68 log10 CFU/g sputum
presumptive S. aureus density, Day 7, Mean (S. aureus; EE population, 240 mg BID): 4.96 log10 CFU/g sputum
presumptive S. aureus density, Day 14, Mean (S. aureus; EE population, 240 mg BID): 4.70 log10 CFU/g sputum
presumptive S. aureus density, Day 28, Mean (S. aureus; EE population, 240 mg BID): 5.42 log10 CFU/g sputum
presumptive S. aureus density, Change from Baseline to Day 28, Mean (S. aureus; EE population, 240 mg BID, Day 14): −0.98 log10 CFU/g sputum
presumptive S. aureus density, Change from Baseline to Day 28, Mean (S. aureus; EE population, 240 mg BID, Day 28): −0.38 log10 CFU/g sputum
presumptive S. aureus density, Change from Baseline to Day 7, Mean (S. aureus; EE population, 240 mg QD): −0.30 log10 CFU/g sputum
presumptive S. aureus density, Day 1, Mean (S. aureus; EE population, 240 mg QD): 5.64 log10 CFU/g sputum
presumptive S. aureus density, Day 7, Mean (S. aureus; EE population, 240 mg QD): 5.34 log10 CFU/g sputum
presumptive S. aureus density, Day 14, Mean (S. aureus; EE population, 240 mg QD): 5.14 log10 CFU/g sputum
presumptive S. aureus density, Day 28, Mean (S. aureus; EE population, 240 mg QD): 4.56 log10 CFU/g sputum
presumptive S. aureus density, Change from Baseline to Day 28, Mean (S. aureus; EE population, 240 mg QD, Day 14): −0.50 log10 CFU/g sputum
presumptive S. aureus density, Change from Baseline to Day 28, Mean (S. aureus; EE population, 240 mg QD, Day 28): −1.08 log10 CFU/g sputum
presumptive S. aureus density, Change from Baseline to Day 7, Mean (S. aureus; [1]): −0.47 log10 CFU/g sputum
presumptive S. aureus density, Day 1, Mean (S. aureus; [1]): 5.65 log10 CFU/g sputum
presumptive S. aureus density, Day 7, Mean (S. aureus; [1]): 5.18 log10 CFU/g sputum
presumptive S. aureus density, Day 14, Mean (S. aureus; [1]): 4.96 log10 CFU/g sputum
presumptive S. aureus density, Day 28, Mean (S. aureus; [1]): 4.89 log10 CFU/g sputum
presumptive S. aureus density, Change from Baseline to Day 28, Mean (S. aureus; EE population, Combined 240 mg QD and BID, Day 14): −0.69 log10 CFU/g sputum
presumptive S. aureus density, Change from Baseline to Day 28, Mean (S. aureus; EE population, Combined 240 mg QD and BID, Day 28): −0.81 log10 CFU/g sputum
presumptive S. aureus density, Change from Baseline to Day 7, Mean (S. aureus; [2]): −0.71 log10 CFU/g sputum
presumptive S. aureus density, Day 1, Mean (S. aureus; [2]): 5.68 log10 CFU/g sputum
presumptive S. aureus density, Day 7, Mean (S. aureus; [2]): 4.97 log10 CFU/g sputum
presumptive S. aureus density, Day 14, Mean (S. aureus; [2]): 5.08 log10 CFU/g sputum
presumptive S. aureus density, Day 28, Mean (S. aureus; [2]): 5.04 log10 CFU/g sputum
presumptive S. aureus density, Change from Baseline to Day 28, Mean (S. aureus; EE population, Combined Levofloxacin, Day 14): −0.60 log10 CFU/g sputum
presumptive S. aureus density, Change from Baseline to Day 28, Mean (S. aureus; EE population, Combined Levofloxacin, Day 28): −0.67 log10 CFU/g sputum
presumptive S. aureus density, Change from Baseline to Day 7, Mean (S. aureus; [3]): −1.14 log10 CFU/g sputum
presumptive S. aureus density, Day 1, Mean (S. aureus; [3]): 5.89 log10 CFU/g sputum
presumptive S. aureus density, Day 7, Mean (S. aureus; [3]): 4.75 log10 CFU/g sputum
presumptive S. aureus density, Day 14, Mean (S. aureus; [3]): 5.48 log10 CFU/g sputum
presumptive S. aureus density, Day 28, Mean (S. aureus; [3]): 5.49 log10 CFU/g sputum
presumptive S. aureus density, Change from Baseline to Day 28, Mean (S. aureus; Table 21 (EE population), 120 mg QD, Day 14): −0.41 log10 CFU/g sputum
presumptive S. aureus density, Change from Baseline to Day 28, Mean (S. aureus; Table 21 (EE population), 120 mg QD, Day 28): −0.41 log10 CFU/g sputum
presumptive S. aureus density, Change from Baseline to Day 7, Mean (S. aureus; [4]): −0.66 log10 CFU/g sputum
presumptive S. aureus density, Day 1, Mean (S. aureus; [4]): 5.51 log10 CFU/g sputum
presumptive S. aureus density, Day 7, Mean (S. aureus; [4]): 4.65 log10 CFU/g sputum
presumptive S. aureus density, Day 14, Mean (S. aureus; [4]): 4.32 log10 CFU/g sputum
presumptive S. aureus density, Day 28, Mean (S. aureus; [4]): 4.95 log10 CFU/g sputum
presumptive S. aureus density, Change from Baseline to Day 28, Mean (S. aureus; Table 21 (EE population), 240 mg BID, Day 14): −0.99 log10 CFU/g sputum
presumptive S. aureus density, Change from Baseline to Day 28, Mean (S. aureus; Table 21 (EE population), 240 mg BID, Day 28): −0.44 log10 CFU/g sputum
presumptive S. aureus density, Change from Baseline to Day 7, Mean (S. aureus; [5]): −0.40 log10 CFU/g sputum
presumptive S. aureus density, Day 1, Mean (S. aureus; [5]): 5.63 log10 CFU/g sputum
presumptive S. aureus density, Day 7, Mean (S. aureus; [5]): 5.23 log10 CFU/g sputum
presumptive S. aureus density, Day 14, Mean (S. aureus; [5]): 4.97 log10 CFU/g sputum
presumptive S. aureus density, Day 28, Mean (S. aureus; [5]): 4.48 log10 CFU/g sputum
presumptive S. aureus density, Change from Baseline to Day 28, Mean (S. aureus; Table 21 (EE population), 240 mg QD, Day 14): −0.66 log10 CFU/g sputum
presumptive S. aureus density, Change from Baseline to Day 28, Mean (S. aureus; Table 21 (EE population), 240 mg QD, Day 28): −1.15 log10 CFU/g sputum
presumptive S. aureus density, Change from Baseline to Day 7, Mean (S. aureus; [6]): −0.51 log10 CFU/g sputum
presumptive S. aureus density, Day 1, Mean (S. aureus; [6]): 5.58 log10 CFU/g sputum
presumptive S. aureus density, Day 7, Mean (S. aureus; [6]): 4.99 log10 CFU/g sputum
presumptive S. aureus density, Day 14, Mean (S. aureus; [6]): 4.70 log10 CFU/g sputum
presumptive S. aureus density, Day 28, Mean (S. aureus; [6]): 4.66 log10 CFU/g sputum
presumptive S. aureus density, Change from Baseline to Day 28, Mean (S. aureus; Table 21 (EE population), Combined 240 mg QD and BID, Day 14): −0.80 log10 CFU/g sputum
presumptive S. aureus density, Change from Baseline to Day 28, Mean (S. aureus; Table 21 (EE population), Combined 240 mg QD and BID, Day 28): −0.87 log10 CFU/g sputum
presumptive S. aureus density, Change from Baseline to Day 7, Mean (S. aureus; [7]): −0.71 log10 CFU/g sputum
presumptive S. aureus density, Day 1, Mean (S. aureus; [7]): 5.68 log10 CFU/g sputum
presumptive S. aureus density, Day 7, Mean (S. aureus; [7]): 4.91 log10 CFU/g sputum
presumptive S. aureus density, Day 14, Mean (S. aureus; [7]): 4.95 log10 CFU/g sputum
presumptive S. aureus density, Day 28, Mean (S. aureus; [7]): 4.93 log10 CFU/g sputum
presumptive S. aureus density, Change from Baseline to Day 28, Mean (S. aureus; Table 21 (EE population), Combined Levofloxacin, Day 14): −0.68 log10 CFU/g sputum
presumptive S. aureus density, Change from Baseline to Day 28, Mean (S. aureus; Table 21 (EE population), Combined Levofloxacin, Day 28): −0.72 log10 CFU/g sputum
